From paper PMC6151456, “Screening a Natural Product-Based Library against Kinetoplastid Parasites” (Molecules : A Journal of Synthetic Chemistry and Natural …, 2017)
Like-named read-outs stand apart in the source and are kept apart here.

What was measured:
[1] = tested on: T. cruzi intracellular amastigotes; assay: T. cruzi intracellular amastigote image-based assay; assay type: cell-based, Trypanosoma cruzi; details: for IC50: n = 2, top 18.3 µM
Protocol: (§1) For the primary screen, compounds were prepared as a stock concentration of 5 mM in 100% DMSO and tested in duplicate points for two independent experiments (n = 2) at final assay concentrations of 20 µM and 16.7 µM for the L. donovani intracellular amastigote and promastigote viability assays, respectively. Primary screening against T. b. brucei was undertaken at 5 µM and for T. cruzi at 10 µM final concentrations. […] These compounds were then retested in a 14 point format to determine the IC50 value against the parasite, and against HEK-293, THP-1 and 3T3 cells to determine the selectivity to the parasite. […] A top dose of 20 µM was used in the T. b. brucei assay and 18.3 µM for T.cruzi assay, in 14 point dose repsonse curves as described.
(§2) The efficacy of compounds against T. cruzi was undertaken using a phenotypic, high-throughput image-based assay as previously described.

3T3 host cells = assay: 3T3 host cell cytotoxicity (selectivity); assay type: cell-based, mouse; details: relative to T. cruzi
Protocol: (§3) Primary screening against T. b. brucei was undertaken at 5 µM and for T. cruzi at 10 µM final concentrations.
as §2

P. falciparum (3D7) = details: cited from earlier work
HEK-293 cells = assay: HEK-293 resazurin viability assay (cytotoxicity, selectivity); assay type: cell-based, human
Protocol: as §3
Cytotoxicity testing was undertaken as previously described.

P. falciparum (Dd2) = details: cited from earlier work
[2] = tested on: T. b. brucei bloodstream form strain 427; assay: T. b. brucei resazurin viability assay; assay type: cell-based, Trypanosoma brucei brucei
Protocol: as §1
The efficacy of compounds against T. b. brucei bloodstream form was evaluated using a resazurin-based assay, previously described in the literature.

[3] = tested on: L. donovani DD8 intracellular amastigotes; assay: L. donovani DD8 intracellular amastigote high content imaging assay; assay type: cell-based, Leishmania donovani; details: 14 point dose response, top 20 µM
Protocol: as §1
A high content, high-throughput imaging assay was used to identify compounds active against L. donovani DD8 intracellular amastigotes as described previosuly.

[4] = tested on: L. donovani DD8 promastigotes; assay: L. donovani DD8 promastigote viability assay (resazurin); assay type: cell-based, Leishmania donovani; details: for IC50: 14 point dose response, top 16.7 µM
Protocol: as §1
This assay was established to assess the activity of the compound library on the extracellular form of the parasites. An initial cell density of 1 × 10^5 parasites/mL was inoculated into a 75 cm^2 flask (in a total of 30 mL of M199 medium + 10% (v/v) HIFBS) and incubated at 27 °C. After 96 h the parasites reached the mid-log phase and were seeded in black, clear bottom 384-well plates (Greiner-bio-one®, Monroe, UT, USA) at a concentration of 5 × 10^5 parasites/mL in a volume of 55 µL using a Bravo automated liquid handling platform (Agilent, Santa Clara, CA, USA). Compound stocks were diluted 1:25 in M199 media without HIFBS using a dilution plate (Greiner-bio-one®, Monroe, UT, USA). The compounds were dispensed in 5 µL using a Bravo and parasites incubated for an additional 68 h at 27 °C. Resazurin (Cayman Chemicals®, Ann Arbor, MI, USA) at 0.142 mM final assay concentration was then dispensed into plates at a volume of 10 µL/well using a Multidrop™ 384 Reagent Dispenser (Thermo Scientific®, Newington, NH, USA) and incubated at 27 °C. The plates were read after 4 h on an EnVision™ Multilabel plate reader (PerkinElmer, Waltham, MA, USA) using fluorometry with an excitation of 530 nm and emission 590 nm. For the L. donovani DD8 promastigote viability assay, 1 µM of amphotericin B was used as positive control and 0.4% DMSO as negative control.

THP-1 cells = assay: THP-1 cytotoxicity (selectivity); assay type: cell-based, human
Protocol: as §1

L. donovani amastigotes = tested on: L. donovani amastigotes; design: method as in PMID 22720099; details: previously reported; read-out: IC50, amastigote assay; cited from earlier work
[5] = Trypanosoma cruzi, intracellular amastigotes, read-out: IC50 (mean ± SD), T. cruzi
[6] = Trypanosoma brucei, n = 2, 14 point dose response, top 20 µM, read-out: IC50 (mean ± SD), T. b. brucei
[7] = Leishmania donovani, n = 2, read-out: IC50 (mean ± SD), L. donovani DD8 intracellular amastigotes
[8] = Leishmania donovani, at 16.7 µM
[9] = relative to L. donovani DD8 intracellular amastigotes
[10] = Trypanosoma brucei, reference compounds, read-out: IC50, T. b. brucei
[11] = n = 2, 14 point dose response, top 20 µM, read-out: IC50 (mean ± SD), T. b. brucei
[12] = Leishmania donovani, n = 2, read-out: IC50 (mean ± SD), L. donovani DD8 promastigotes
[13] = relative to L. donovani DD8 promastigotes
[14] = Leishmania donovani, read-out: IC50 (mean ± SD), L. donovani DD8 intracellular amastigotes, n = 2

Molecule | IC50 [1, 5] [nM] | Selectivity index (SI) compared to 3T3 cells (3T3 host cells) | Selectivity index (SI) compared to HEK-293 cells (HEK-293 cells; relative to T. b. brucei) | Selectivity index (SI) compared to HEK-293 cells (HEK-293 cells; relative to T. cruzi) | IC50 [2, 6] [nM] | Selectivity index (SI) compared to THP-1 cells (THP-1 cells; [9]) | Selectivity index (SI) compared to HEK-293 cells (HEK-293 cells; [9]) | further results
Cc1ccc(S(=O)(=O)n2ccc3c2C(=O)C2=C(NCCS2(=O)=O)C3=O)cc1 [Compound 7, 6-tosyl-2,3-dihydro-[1, 4]thiazino[3,2-f]indole-5,9(1H,6H)-dione 4,4-dioxide] | 3550 ± 380 | 1.33 | 4.19 | 1.46 | 680 ± 10 | – | – | IC50 (P. falciparum (3D7); read-out: IC50, 3D7 strain of P. falciparum): 546 ± 119 nM; IC50 (P. falciparum (Dd2); read-out: IC50, Dd2 strain of P. falciparum): 509 ± 30.9 nM
CCOC(=O)c1c(C)n(-c2ccc(OC)cc2)c2ccc(O)c(CN(CC)CC)c12 [Compound 12, ethyl 4-((diethylamino)methyl)-5-hydroxy-1-(4-methoxyphenyl)-2-methyl-1H-indole-3-carboxylate] | – | – | – | – | – | > 1.50 | > 2.97 | activity against T. cruzi [1]: no significant activity; IC50 [3, 7]: 11100 ± 310 nM; inhibition at 16.7 µM [4, 8]: 100%; activity against T. b. brucei [2]: no significant activity
COc1ccc(C[C@H](N)C(=O)N[C@H]2[C@@H](O)[C@H](n3cnc4c(N(C)C)ncnc43)O[C@@H]2CO)cc1 [Puromycin, reference compound] | 1650 ± 350 | – | 12.96 | 0.150 | 30 | – | – | IC50 [2, 10]: 39 ± 6.09 nM
CC(C)=CCC[C@]1(C)C=Cc2c(O)c3c(c(CC=C(C)C)c2O1)O[C@]12C(=C[C@@H]4C[C@H]1C(C)(C)O[C@@]2(C/C=C(/C)C(=O)O)C4=O)C3=O [Compound 4, Gambogic acid] | 1870 ± 70 | 1.00 | 7.11 | 1.50 | 270 ± 40 | – | – | inhibition at 16.7 µM [4, 8]: 100%
O=C1C2=C(C(=O)c3ccccc31)S(=O)(=O)CCN2 [Compound 9, 3,4-dihydro-2H-naphtho[2,3-b][1,4]thiazine-5,10-dione 1,1-dioxide] | 3820 ± 610 | 1.24 | – | 1.11 | – | – | – | IC50 ([1]; intracellular amastigotes, listed as 3,4-Dihydro-2H-naphtho[2,3-b]-[1,4] thiazine-5,10-dione 1,1-dioxide (9), read-out: IC50 (mean ± SD), T. cruzi): 3810 ± 600 nM; inhibition at 16.7 µM [4, 8]: 100%
Psammaplysin F [Compound 14] | – | > 1.90 | – | > 3.51 | – | – | – | IC50 ([1]; intracellular amastigotes, listed as Psammaplysin F (14), read-out: IC50 (mean ± SD), T. cruzi): 5630 ± 760 nM; IC50 (P. falciparum (3D7); read-out: IC50, P. falciparum 3D7): 870 nM; IC50 (P. falciparum (Dd2); read-out: IC50, P. falciparum Dd2): 1400 nM
N=C(N)c1ccc(OCCCCCOc2ccc(C(=N)N)cc2)cc1 [Pentamidine] | – | – | > 334.52 | – | 2 ± 1 | – | – | IC50 [2, 10]: 2.86 ± 1.46 nM
O=C1N[C@@H]2C(=C[C@H](O)[C@@H](O)[C@H]2O)c2cc3c(c(O)c21)OCO3 [Compound 6, Narciclasine] | – | 3.28 | 1.09 | 0.21 | – | – | – | IC50 ([1]; intracellular amastigotes, read-out: IC50 (mean ± SD), T. cruzi): 200 ± 10 nM; inhibition of L. donovani DD8 promastigotes ([4]; at 16.7 µM): 100% inhibition at 16.7 µM; IC50 [2, 11]: 30 ± 10 nM
C[C@@H]1[C@H](O)[C@@H](C)/C=C/C=C/C=C/C=C/C=C/C=C/C=C/[C@H](O[C@@H]2O[C@H](C)[C@@H](O)[C@H](N)[C@@H]2O)C[C@@H]2O[C@](O)(C[C@@H](O)C[C@@H](O)[C@H](O)CC[C@@H](O)C[C@@H](O)CC(=O)O[C@H]1C)C[C@H](O)[C@H]2C(=O)O [Amphotericin B, reference compound] | – | – | – | – | – | > 9.61 | > 41.65 | IC50 [3, 7]: 200 ± 20 nM; IC50 [4, 12]: 120 ± 10 nM; Selectivity index (SI) compared to THP-1 cells (THP-1 cells; [13]): > 16.39; Selectivity index (SI) compared to HEK-293 cells (HEK-293 cells; [13]): > 68.27
CCCCCCCCCCCCCCCCOP(=O)([O-])OCC[N+](C)(C)C [Miltefosine, reference compound] | – | – | – | – | – | > 7.27 | > 13.12 | IC50 [3, 7]: 2540 ± 570 nM; IC50 [4, 12]: 3480 ± 260 nM; Selectivity index (SI) compared to THP-1 cells (THP-1 cells; [13]): > 5.74; Selectivity index (SI) compared to HEK-293 cells (HEK-293 cells; [13]): > 9.57; IC50 (L. donovani amastigotes): 3100 ± 2300 nM
CC1CS(=O)(=O)CCN1/N=C/c1ccc([N+](=O)[O-])o1 (stereo not shown) [Nifurtimox, reference compound] | 620 ± 100 | – | – | > 243.03 | – | – | – | –
COc1c(SC)c(CCN(C)C)c2sc3c(CCN(C)C)c(SC)c(OC)c(OC)c3ssc2c1OC [Compound 11, Lissoclinotoxin F] | – | – | – | – | – | > 1.20 | > 2.40 | IC50 [3, 14]: 8310 ± 670 nM; IC50 ([4]; Leishmania donovani, read-out: IC50 (mean ± SD), L. donovani DD8 promastigotes, n = 2): 5510 ± 300 nM; Selectivity index (SI) compared to THP-1 cells (THP-1 cells; [13]): > 1.81; Selectivity index (SI) compared to HEK-293 cells (HEK-293 cells; [13]): > 3.62
Spermatinamine [Compound 2] | – | – | 5.89 | – | – | 0.80 | 0.64 | IC50 ([3]; n = 2, read-out: IC50 (mean ± SD), L. donovani DD8 intracellular amastigotes): 6150 ± 50 nM; IC50 (P. falciparum (3D7); read-out: antimalarial IC50, P. falciparum (3D7)): 230 nM; IC50 ([4]; n = 2, read-out: IC50 (mean ± SD), L. donovani DD8 promastigotes): 11900 ± 560 nM; Selectivity index (SI) compared to THP-1 cells (THP-1 cells; [13]): 0.41; Selectivity index (SI) compared to HEK-293 cells (HEK-293 cells; [13]): 0.33; IC50 [2, 11]: 1000 ± 260 nM
O=C(Cn1ccnc1[N+](=O)[O-])NCc1ccccc1 [Benznidazole, reference compound] | 3360 ± 1520 | – | – | > 44.84 | – | – | – | –
N=C(N)c1ccc(/N=N/Nc2ccc(C(=N)N)cc2)cc1 [Diminazene] | – | – | > 962.75 | – | 40 ± 10 | – | – | IC50 [2, 10]: 40.5 ± 12.8 nM
COc1c(OC)c2c(c(CCN(C)C)c1SC)Sc1c(CCN(C)C)c(SC)c(OC)c(OC)c1S2 [Compound 1, Lissoclinotoxin E] | – | > 4.67 | > 17.68 | > 2.52 | – | 1.13 | > 2.26 | IC50 ([1]; Trypanosoma cruzi, read-out: IC50 (mean ± SD), T. cruzi, intracellular amastigotes): < 5000 nM; IC50 ([1]; read-out: IC50 (mean ± SD), T. cruzi, intracellular amastigotes, listed as Lissoclinotoxin E (1)): 3920 ± 380 nM; IC50 [3, 14]: < 5000 nM; IC50 ([3]; read-out: IC50 (mean ± SD), L. donovani DD8 intracellular amastigotes, n = 2, listed as Lissoclinotoxin E (1)): 4410 ± 240 nM; Selectivity index (SI) compared to THP-1 cells (THP-1 cells; [13]): 6.88; Selectivity index (SI) compared to HEK-293 cells (HEK-293 cells; [13]): > 11.72
COc1c(C)c2c(c(O)c1C/C=C(\C)CCC(=O)O)C(=O)OC2 [Compound 5, Mycophenolic acid, reference compound] | 1590 ± 30 | 0.13 | 1.01 | 0.37 | 510 ± 100 | – | – | –
